As usually defined, the IC50 is the concentration needed to halve the response being measured. The low end stands for inhibition by little substance, the high end for a need for much substance.

A value given as a limit tells only on which side of the number the result lay.

The target in assay [1] is T1, histone deacetylase activity (HeLa nuclear extract).
T1 construct: Histone deacetylase activity from crude nuclear extract derived from HeLa cells was used for screening
The assay is described as follows: HDAC fluorescent activity assay (Biomol Fluor de Lys), HeLa nuclear extract. The format is biochemical. The note with it: Fluor de Lys substrate, IC50 range. An outline of the steps:
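Crude HeLa nuclear extract (20 mM Hepes, 100 mM KCl, 0.2 mM EDTA, 0.5 mM DTT, 0.2 mM PMSF, 20% glycerol) incubated with acetyl-lysine Fluor de Lys substrate ± inhibitor; developer generates fluorophore. Background-subtracted % of vehicle control; IC50 from eight-point variable-slope sigmoidal fit.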

For assay [2], the system named is Hela cancer cell line. The experiment in a line: Cell inhibition assay (SRB cell viability), Hela. Format: cell-based. The settings on record: Homo sapiens, HeLa, 72 h, Hela cells, IC50 range. In outline: (§1)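 Log-phase Hela, U937 and HUT cells were seeded at 1000 cells/well, grown 24 h, then exposed to compound (20 uM final) for 72 h. Viability was read by sulphorhodamine B staining and expressed as % inhibition relative to DMSO control. IC50 values came from sigmoidal variable-slope fits of eight concentrations.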

The test system of assay [3] is U937 cancer cell line. The experiment in a line: Cell inhibition assay (SRB cell viability), U937. The format is cell-based. The settings on record: Homo sapiens, U-937, U937 cells, 72 h, IC50 range. In outline: as §1
The test system of assay [4] is HUT cancer cell line. The experiment in a line: Cell inhibition assay (SRB cell viability), HUT. The note with it: HUT cells, 72 h, IC50 range. Format: cell-based. An outline of the steps:
as §1

Turning to `CCOC(=O)[C@H](Cc1ccccc1)NC(=O)[C@@H]1Cc2ccccc2CN1C(=O)CCCCCCC(=O)NO` [Compound 47, (S)-2-{[(S)-2-(7-Hydroxycarbamoyl-heptanoyl)-1,2,3,4-tetrahydro-isoquinoline-3-carbonyl]-amino}-3-phenyl-propionic acid ethyl ester], the IC50 in assay [1] was 101 to 1000 nM; in assay [2] it was more than 3300 nM; in assay [3], 330 to 3300 nM; in assay [4], 330 to 3300 nM.

As to `O=C(CCCCCCC(=O)N1Cc2ccccc2C[C@H]1C(=O)N[C@@H](Cc1ccccc1)C(=O)O)NO` [Compound 48, (S)-2-{[(S)-2-(7-Hydroxycarbamoyl-heptanoyl)-1,2,3,4-tetrahydro-isoquinoline-3-carbonyl]-amino}-3-phenyl-propionic acid], the IC50 was more than 1000 nM in assay [1], more than 3300 nM in assay [2], 330 to 3300 nM in assay [3] and 330 to 3300 nM in assay [4].

Take `CCOC(=O)[C@H](CC(C)C)NC(=O)[C@@H]1Cc2ccccc2CN1C(=O)CCCCCCC(=O)NO` [Compound 50, (S)-2-{[(S)-2-(7-Hydroxycarbamoyl-heptanoyl)-1,2,3,4-tetrahydro-isoquinoline-3-carbonyl]-amino}-4-methyl-pentanoic acid ethyl ester]: the half-inhibitory concentration (IC50) in assay [1] was more than 1000 nM; in assay [2], more than 3300 nM; in assay [3] it was 330 to 3300 nM; in assay [4] it was 330 to 3300 nM.

For `CC(C)C[C@H](NC(=O)[C@@H]1Cc2ccccc2CN1C(=O)CCCCCCC(=O)NO)C(=O)OC1CCCC1` [Compound 51, (S)-2-{[(S)-2-(7-Hydroxycarbamoyl-heptanoyl)-1,2,3,4-tetrahydro-isoquinoline-3-carbonyl]-amino}-4-methyl-pentanoic acid cyclopentyl ester], the IC50 is 101 to 1000 nM in assay [1], more than 3300 nM in assay [2], 330 to 3300 nM in assay [3] and 330 to 3300 nM in assay [4].

Turning to `O=C(CCCCCCC(=O)N1CCCC1C(=O)N[C@H](C(=O)OC1CCCC1)c1ccccc1)NO` (stereo partly drawn) [Compound 53, (S)-{[1-(7-Hydroxycarbamoyl-heptanoyl)-pyrrolidine-2-carbonyl]-amino}-phenyl-acetic acid cyclopentyl ester], the IC50 is more than 1000 nM in assay [1], more than 3300 nM in assay [2], more than 3300 nM in assay [3] and more than 3300 nM in assay [4].

In the case of `CCOC(=O)[C@H](Cc1ccccc1)NC(=O)C1CCCN1C(=O)CCCCCCC(=O)NO` (stereo partly drawn) [Compound 55, (S)-2-{[1-(7-Hydroxycarbamoyl-heptanoyl)-pyrrolidine-2-carbonyl]-amino}-3-phenyl-propionic acid ethyl ester], the IC50 in assay [1] was more than 1000 nM; in assay [2], more than 3300 nM; in assay [3], more than 3300 nM; in assay [4] it was more than 3300 nM.

As to `O=C(CCCCCCC(=O)N1CCCC1C(=O)N[C@@H](Cc1ccccc1)C(=O)OC1CCCC1)NO` (stereo partly drawn) [Compound 56, (S)-2-{[1-(7-Hydroxycarbamoyl-heptanoyl)-pyrrolidine-2-carbonyl]-amino}-3-phenyl-propionic acid cyclopentyl ester], the IC50 was more than 1000 nM in assay [1], more than 3300 nM in assay [2], more than 3300 nM in assay [3] and more than 3300 nM in assay [4].

`O=C(CCCCCCC(=O)N1Cc2[nH]c3ccccc3c2[C@H](C(=O)N[C@@H](Cc2ccccc2)C(=O)OC2CCCC2)C1)NO` [Compound 58, (S)-2-{[(S)-2-(7-Hydroxycarbamoyl-heptanoyl)-2,3,4,9-tetrahydro-1H-beta-carboline-4-carbonyl]-amino}-3-phenyl-propionic acid cyclopentyl ester]: the IC50 lay within 101 to 1000 nM in assay [1], 330 to 3300 nM in assay [2], 330 to 3300 nM in assay [3] and 330 to 3300 nM in assay [4].

As for `O=C(CCCCCCC(=O)Nc1cccc(C(=O)N[C@H](C(=O)OC2CCCC2)c2ccccc2)c1)NO` [Compound 60, (S)-[3-(7-Hydroxycarbamoyl-heptanoylamino)-benzoylamino]-phenyl-acetic acid cyclopentyl ester], the IC50 in assay [1] was in the range of 101 to 1000 nM; in assay [2], 330 to 3300 nM; in assay [3], 330 to 3300 nM; in assay [4], 330 to 3300 nM.

As for `CC(C)C[C@H](NC(=O)c1cccc(NC(=O)CCCCCCC(=O)NO)c1)C(=O)OC1CCCC1` [Compound 62, (S)-2-[3-(7-Hydroxycarbamoyl-heptanoylamino)-benzoylamino]-4-methyl-pentanoic acid cyclopentyl ester], the IC50 in assay [1] is 101 to 1000 nM; in assay [2] it was more than 3300 nM; in assay [3] it was more than 3300 nM; in assay [4], 330 to 3300 nM.

Regarding `CCOC(=O)[C@H](Cc1ccccc1)NCc1cncc(NC(=O)CCCCCCC(=O)NO)c1` [Compound 66, (S)-2-{[5-(7-Hydroxycarbamoyl-heptanoylamino)-pyridin-3-ylmethyl]-amino}-3-phenyl-propionic acid ethyl ester], the IC50 in assay [1] is 101 to 1000 nM; in assay [2] it was more than 3300 nM; in assay [3] it was more than 3300 nM; in assay [4] it was more than 3300 nM.

Regarding `CC(C)(C)OC(=O)[C@H](Cc1ccccc1)NCc1cncc(NC(=O)CCCCCCC(=O)NO)c1` [Compound 68, (S)-2-{[5-(7-Hydroxycarbamoyl-heptanoylamino)-pyridin-3-ylmethyl]-amino}-3-phenyl-propionic acid tert-butyl ester], the IC50 in assay [1] was 101 to 1000 nM; in assay [2], more than 3300 nM; in assay [3], 330 to 3300 nM; in assay [4], 330 to 3300 nM.

As for `O=C(CCCCCCC(=O)Nc1cccc(CCN[C@H](C(=O)OC2CCCC2)c2ccccc2)c1)NO` [Compound 71, (S)-{2-[3-(7-Hydroxycarbamoyl-heptanoylamino)-phenyl]-ethylamino}-phenyl-acetic acid cyclopentyl ester], the IC50 was less than 100 nM in assay [1], 330 to 3300 nM in assay [2], less than 330 nM in assay [3] and 330 to 3300 nM in assay [4].

Turning to `O=C(CCCCCCC(=O)Nc1cccc(OCCN[C@@H](Cc2ccccc2)C(=O)OC2CCCC2)c1)NO` [Compound 73, (S)-2-{2-[3-(7-Hydroxycarbamoyl-heptanoylamino)-phenoxy]-ethylamino}-3-phenyl-propionic acid cyclopentyl ester], the IC50 in assay [1] was less than 100 nM; in assay [2], 330 to 3300 nM; in assay [3], less than 330 nM; in assay [4], 330 to 3300 nM.

On to `O=C(CCCCCCC(=O)Nc1cccc(OCCCN[C@@H](Cc2ccccc2)C(=O)OC2CCCC2)c1)NO` [Compound 75, (S)-2-{3-[3-(7-Hydroxycarbamoyl-heptanoylamino)-phenoxy]-propylamino}-3-phenyl-propionic acid cyclopentyl ester], for which the concentration for half-maximal inhibition (IC50) in assay [1] is less than 100 nM; in assay [2] it was 330 to 3300 nM; in assay [3], less than 330 nM; in assay [4] it was less than 330 nM.

As to `O=C(CCCCCCC(=O)Nc1cccc(OCCCN[C@H](C(=O)OC2CCCC2)c2ccccc2)c1)NO` [Compound 77, (S)-{3-[3-(7-Hydroxycarbamoyl-heptanoylamino)-phenoxy]-propylamino}-phenyl-acetic acid cyclopentyl ester], the IC50 is less than 100 nM in assay [1], 330 to 3300 nM in assay [2], less than 330 nM in assay [3] and less than 330 nM in assay [4].

For the compound `O=C(CCCCCCC(=O)Nc1cccc(CNC(=O)N[C@@H](Cc2ccccc2)C(=O)OC2CCCC2)c1)NO` [Compound 81, (S)-2-{3-[3-(7-Hydroxycarbamoyl-heptanoylamino)-benzyl]-ureido}-3-phenyl-propionic acid cyclopentyl ester], the IC50 in assay [1] is less than 100 nM; in assay [2], more than 3300 nM; in assay [3], more than 3300 nM; in assay [4], 330 to 3300 nM.

With `O=C(CCCCCCC(=O)Nc1ccc(CN[C@@H](C(=O)OC2CCCC2)c2ccccc2)cc1)NO` [Compound 83, (R)-[4-(7-Hydroxycarbamoyl-heptanoylamino)-benzylamino]-phenyl-acetic acid cyclopentyl ester], the IC50 in assay [1] is 101 to 1000 nM; in assay [2] it was 330 to 3300 nM; in assay [3] it was 330 to 3300 nM; in assay [4], 330 to 3300 nM.

In the case of `CC(C)C[C@H](NCc1ccc(NC(=O)CCCCCCC(=O)NO)cc1)C(=O)OC1CCCC1` [Compound 85, (S)-2-[4-(7-Hydroxycarbamoyl-heptanoylamino)-benzylamino]-4-methyl-pentanoic acid cyclopentyl ester], the IC50 is 101 to 1000 nM in assay [1], more than 3300 nM in assay [2], less than 330 nM in assay [3] and 330 to 3300 nM in assay [4].

With `O=C(CCCCCCC(=O)Nc1ccc(CN[C@H](C(=O)OC2CCCC2)C2CCCCC2)cc1)NO` [Compound 86, (S)-Cyclohexyl-[4-(7-hydroxycarbamoyl-heptanoylamino)-benzylamino]-acetic acid cyclopentyl ester], the IC50 is 101 to 1000 nM in assay [1], more than 3300 nM in assay [2], less than 330 nM in assay [3] and 330 to 3300 nM in assay [4].

As to `CC(OC(C)(C)C)[C@H](NCc1ccc(NC(=O)CCCCCCC(=O)NO)cc1)C(=O)OC1CCCC1` (stereo partly drawn) [Compound 88, (S)-3-tert-Butoxy-2-[4-(7-hydroxycarbamoyl-heptanoylamino)-benzylamino]-butyric acid cyclopentyl ester], the IC50 was 101 to 1000 nM in assay [1], 330 to 3300 nM in assay [2], less than 330 nM in assay [3] and 330 to 3300 nM in assay [4].

For the origin of these results see US9133104B2 (Chroma Therapeutics Ltd., priority 2005, dated 2015).
